Source: ChEMBL document CHEMBL1127886, “Inhibition of the RTEM-1 -lactamase by boronic acids” (Bioorg Med Chem Lett, 1994)
pKi: −log10 of the molar value.

Molecular target: Beta-lactamase TEM (Escherichia coli, UniProt P62593)
Assay: Inhibitory constant was determined against class A RTEM-1 Beta-lactamase from Escherichia coli

Sequence of Beta-lactamase TEM (P62593 whole entry): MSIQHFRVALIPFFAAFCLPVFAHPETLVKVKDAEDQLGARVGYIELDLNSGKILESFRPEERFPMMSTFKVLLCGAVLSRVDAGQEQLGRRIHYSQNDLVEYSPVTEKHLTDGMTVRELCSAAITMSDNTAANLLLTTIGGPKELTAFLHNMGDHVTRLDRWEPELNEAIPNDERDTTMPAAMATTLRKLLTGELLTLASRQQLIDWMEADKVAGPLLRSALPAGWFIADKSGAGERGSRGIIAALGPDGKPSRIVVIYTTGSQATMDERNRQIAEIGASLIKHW

## OB(O)c1ccc(F)c(Cl)c1
  pKi: 3.82

## OB(O)c1ccccc1 [PHENYLBORONIC ACID]
  pKi: 3.31

## Cc1ccccc1CCB(O)O
  pKi: 3.85

## OB(O)c1ccc(Cl)c(Cl)c1
  pKi: 3.84

## OB(O)CCc1ccc(Cl)cc1
  pKi: 4.39

## COc1cccc(CCB(O)O)c1
  pKi: 4.30

## OB(O)c1ccc(Cl)cc1Cl
  pKi: 4.03

## COc1ccc(B(O)O)cc1
  pKi: 3.17

## OB(O)c1ccc(Br)cc1
  pKi: 4.55

## OB(O)CCc1ccccc1Cl
  pKi: 3.97

## OB(O)c1cccc(-c2ccccc2)c1
  pKi: 4.86

## O=C(O)c1ccc(CCB(O)O)cc1
  pKi: 4.31

## Nc1cccc(B(O)O)c1
  pKi: 2.43

## OB(O)CCc1cccc2ccccc12
  pKi: 4.00

## OB(O)CCc1ccc(C(F)(F)F)cc1
  pKi: 4.37

## OB(O)CCc1ccc2ccccc2c1
  pKi: 4.36

## Cc1ccc(CCB(O)O)cc1
  pKi: 4.24

## Cc1cccc(CCB(O)O)c1
  pKi: 4.08

## OB(O)CCC1CCCCC1
  pKi: 3.56

## OB(O)c1cccc(Br)c1
  pKi: 4.08
